Source: PMC9496400, “Structural Comparison of hMDH2 Complexed with Natural Substrates and Cofactors: The Importance of Phosphate Binding for Active Conformation and Catalysis” (Biomolecules, 2022)

How the values were obtained:
Format in all cases: binding
[1] = molecular target: T1, human mitochondrial malate dehydrogenase (hMDH2) (Homo sapiens, UniProt P40926); assay: crystal structure ([…] Å; also with NAD, 4WLU, […] Å)
T1 construct: gene MDH2
T1 sequence (P40926 19-338): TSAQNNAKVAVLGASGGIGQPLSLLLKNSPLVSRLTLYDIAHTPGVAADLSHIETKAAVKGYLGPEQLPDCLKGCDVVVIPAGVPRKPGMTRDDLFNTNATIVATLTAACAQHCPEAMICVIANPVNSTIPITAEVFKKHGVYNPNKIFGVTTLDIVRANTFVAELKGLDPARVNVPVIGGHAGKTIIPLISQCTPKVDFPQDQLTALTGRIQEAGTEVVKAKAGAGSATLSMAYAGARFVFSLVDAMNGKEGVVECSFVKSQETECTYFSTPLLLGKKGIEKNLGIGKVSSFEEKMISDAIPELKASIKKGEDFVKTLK

[2] = molecular target: T1, human mitochondrial malate dehydrogenase (hMDH2); assay: ITC direct titration; crystal structure with oxaloacetate
[3] = molecular target: T1, human mitochondrial malate dehydrogenase (hMDH2); assay: crystal structure ([…] Å); competitive replacement ITC with NADH
[4] = molecular target: T1, human mitochondrial malate dehydrogenase (hMDH2); assay: crystal structure ([…] Å)
[5] = molecular target: T1, human mitochondrial malate dehydrogenase (hMDH2); assay: crystal structure of the ternary complex with NADH ([…] Å)
[6] = molecular target: T1, human mitochondrial malate dehydrogenase (hMDH2); assay: crystal structure ([…] Å); enzyme activity increased by phosphate

Compound: O=C(O)C[C@H](O)C(=O)O [L-malate]
- crystal structure (2.20 Å; also with NAD, 4WLU, 2.14 Å) [1]: Both L-malate and citrate bound in the same site of hMDH2 and formed hydrogen bonds with the surrounding residues

Compound: NC(=O)C1=CN([C@@H]2O[C@H](COP(=O)(O)OP(=O)(O)OC[C@H]3O[C@@H](n4cnc5c(N)ncnc54)[C@H](O)[C@@H]3O)[C@@H](O)[C@H]2O)C=CC1 [NADH]
- Kd [2]: 3.05 µM

Compound: NC(=O)c1ccc[n+]([C@@H]2O[C@H](COP(=O)([O-])OP(=O)(O)OC[C@H]3O[C@@H](n4cnc5c(N)ncnc54)[C@H](O)[C@@H]3O)[C@@H](O)[C@H]2O)c1 [NAD]
- Kd [3]: 2310 µM

Compound: O=C(O)CC(O)(CC(=O)O)C(=O)O [citrate]
- crystal structure (1.90 Å) [4]: The citrate occupied the substrate binding site in the refined structure.

Compound: O=C(O)CC(=O)C(=O)O [oxaloacetate]
- crystal structure of the ternary complex with NADH (2.50 Å) [5]: Arg104 paired with only one oxygen atom of oxaloacetate

Compound: O=P(O)(O)O [phosphate]
- crystal structure (2.28 Å); enzyme activity increased by phosphate [6]: two phosphate ions were located in the substrate binding site and a third in the position of the ribose ring
